Measurements from patent US11116767B2, “3,5-disubstituted pyrazoles useful as checkpoint kinase 1 (Chk1) inhibitors, and their preparations and applications” (PHARMAENGINE, INC., priority 2016, dated 2021).

Experiments:
HT-29 = experiment: Cancer cell growth inhibition assay (CellTiter-Glo), HT-29; format: cell-based, Human; conditions: Homo sapiens, HT-29; 72 hours, cellular ATP content; read-out: HT-29 anti cell proliferation activity (grade)
Protocol: (§1) Human cancer cell lines were purchased from American Type Culture Collection (Manassas, Va.). The trypsinized cells were diluted to required volume at densities of 44,000 cells/ml. 90 ul cell slurry was dispensed per well in 96-well flat-bottomed plates with the recommended culture medium. The cells were incubated for 24 hours at 37° C. in 5% CO2 under humidified condition. The cells were then incubated with compounds at various concentrations for 72 hours in culture medium supplemented with 0.5% (v/v) FBS. Growth inhibition was assessed by assay of cellular ATP content using CellTiter-Glo reagent to each well. Luminesce was read on Envision. The inhibition rate (%)=(Max signal compound signal)/(Max signal Min signal)×100.

MDA-MB-231 = experiment: Cancer cell growth inhibition assay (CellTiter-Glo), MDA-MB-231; format: cell-based, Human; conditions: Homo sapiens, MDA-MB-231; 72 hours, cellular ATP content; read-out: MDA-MB-231 anti cell proliferation activity (grade)
Protocol: as §1

[1] = tested on: HT-29 colon cancer xenograft; format: in vivo
Protocol: (§2) Female Balb/c nude mice at 7-8 weeks of age (Body weights between 17-18g) were purchased from Hunan SJA Laboratory Animal Co., Ltd. HT-29 cells were cultured in DMEM culture medium containing 10% fetal bovine serum and LoVo cells were cultured in RPMI 1640 culture medium containing 10% fetal bovine serum. The cells were harvested and washed with serum free culture medium. Finally, the cells were suspended at a cell density of […] in serum free culture medium for implantation. 5 million cells per animal suspended in 0.1 ml serum free culture medium and 1.1 matrigel were injected into the right flank of the animals after a one, week acclimation period. When average tumor volume reached acceptable tumor size (100-200 mm^3) and shape, the animals were randomly assigned into treatment groups.
HT-29 colon cancer cells were implanted to establish the xenograft model in Balb/c nude mice. Compound 3 and LY2606368 were dissolved in 30% SEB-β-CD (Zhiyuan Bio-technology) with 1 molar equivalents of HCl. GDC-575 was suspended in 0.5% methyl cellulose/0.1% Tween 80 in water. […]. The animals well tolerated each treatment in the HT-29 colon cancer in nude mice model.

[2] = tested on: LoVo colon cancer xenograft; experiment: LoVo colon xenograft model; format: in vivo, Balb/c nude mice
Protocol: as §2
Lovo colon cancer cells were implanted to establish the xenograft model in Balb/c nude mice. Compound 3 and LY2606368 were dissolved in 30% SEB-β-CD (Zhiyuan Bio-technology) with 1 molar equivalents of HCl. […]

Chk2 = target: T1, Chk2 (Homo sapiens, UniProt O96017); experiment: biochemical; conditions: ADP-Glo; read-out: Chk2 in vitro enzyme activity (grade)
T1 construct: purchased Carna 02-162
T1 sequence (O96017 whole entry): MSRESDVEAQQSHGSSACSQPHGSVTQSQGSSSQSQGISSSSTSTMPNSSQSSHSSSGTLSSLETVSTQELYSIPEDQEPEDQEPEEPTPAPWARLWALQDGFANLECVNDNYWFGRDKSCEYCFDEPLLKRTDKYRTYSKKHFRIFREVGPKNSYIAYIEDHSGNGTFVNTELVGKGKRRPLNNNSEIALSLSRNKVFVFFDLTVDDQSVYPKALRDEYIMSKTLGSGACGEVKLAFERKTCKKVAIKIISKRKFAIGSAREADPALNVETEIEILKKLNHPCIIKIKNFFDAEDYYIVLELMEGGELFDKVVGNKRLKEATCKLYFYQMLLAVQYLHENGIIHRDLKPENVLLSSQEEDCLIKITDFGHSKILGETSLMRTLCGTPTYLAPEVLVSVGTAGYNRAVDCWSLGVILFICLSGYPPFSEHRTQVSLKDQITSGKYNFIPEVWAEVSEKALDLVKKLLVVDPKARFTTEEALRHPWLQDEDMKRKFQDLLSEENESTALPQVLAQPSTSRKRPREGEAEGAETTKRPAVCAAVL

[3] = Human liver S9 metabolic stability; format: in vitro ADME; conditions: for Percentage Remaining %: 1 μM, 37° C.
Protocol: Compounds (1 μM) were incubated with human liver S9 (from BD Gentest) at final liver microsomal protein concentration of 0.5 mg/mL for 0, 5, 15, 30, 45 min at 37° C. The remaining compounds in the reaction were measured by LC-MS/MS. The half-life (T½) 0.693/K (K is the rate constant from a plot of ln [concentration] vs. incubation time).

Chk1 = target: T2, Chk1 (Homo sapiens, UniProt O14757); experiment: biochemical; conditions: ADP-Glo; read-out: Chk1 in vitro enzyme activity (grade)
T2 construct: purchased BPS 40039
T2 sequence (O14757 1-476): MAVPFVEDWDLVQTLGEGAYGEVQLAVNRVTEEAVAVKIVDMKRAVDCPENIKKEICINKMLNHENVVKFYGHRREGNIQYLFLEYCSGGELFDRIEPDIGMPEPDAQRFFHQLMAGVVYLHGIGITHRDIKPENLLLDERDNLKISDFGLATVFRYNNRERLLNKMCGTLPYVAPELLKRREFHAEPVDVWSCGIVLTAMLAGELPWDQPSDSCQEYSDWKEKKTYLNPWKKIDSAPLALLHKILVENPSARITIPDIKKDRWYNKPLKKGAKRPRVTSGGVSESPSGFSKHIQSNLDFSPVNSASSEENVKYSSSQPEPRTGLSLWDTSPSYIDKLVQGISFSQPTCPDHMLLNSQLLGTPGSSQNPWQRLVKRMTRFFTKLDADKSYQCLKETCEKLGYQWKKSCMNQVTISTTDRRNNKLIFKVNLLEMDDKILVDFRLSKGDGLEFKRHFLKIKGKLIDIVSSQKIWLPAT

in vivo = experiment: in vivo; parameters: species or system Balb/c nude mice; conditions: mouse, iv, 40 mg/kg
Protocol: as §2
Compound 3 was selected for further PK studies in tumor bearing mice. HT-29 colon cancer cells were implanted to establish the xenograft model in Balb/c nude mice. Twenty-four mice were divided into 8 time groups with n=3/group. Compound 3 was dissolved in 30% SEB-β-CD (Zhiyuan Bio-technology) with 1 molar equivalents of HCl. Each animal was dosed via intravenous administration of Compound 3 at 40 mg/kg. Blood and tumors were collected at various time points after mice were euthanized with CO2. Blood samples were centrifuged at 4° C. immediately after collection. The supernatants were transferred to 1.5 mL of Eppendorf vials as soon as possible and stored at −80° C. in a freezer. Tumor samples were collected and placed in dry ice until transferred to a −80° C. freezer for bioanalysis.

[4] = tested on: ChK1 phosphorylation (pChK1 S296) in HT-29 colon cancer cells; experiment: Western blot analysis of ChK1 phosphorylation in HT-29 cells with SN-38; format: cell-based, Human; conditions: HT-29 cells pre-incubated with SN-38 (50 nM) 24 hours, then ChK1 inhibitor 3 hours

Q: Which results are given for `COc1cc(F)cc(OCCCN)c1-c1cc(Nc2cnc(C#N)cn2)n[nH]1` [Compound 3, 5-(5-(2-(3-Aminopropoxy)-4-fluoro-6-methoxyphenyl)-1H-pyrazol-3-ylamino)pyrazine-2-carbonitrile]?
A: IC50 (HT-29): 0.01 to 0.05 µM; IC50 (MDA-MB-231): 0.05 to 0.1 µM; T/C value ([1]; 40 mg/kg, iv, 2 times/week): 31%; Tumor volume (X ± SD) ([1]; 40 mg/kg, iv, 2 times/week): 407 ± 17 mm^3; Tumor weight (X ± SD) ([1]; 40 mg/kg, iv, 2 times/week): 272 ± 16 mg; efficacy compared with references at their MTD ([1]; mouse, in vivo): more efficacious than the reference LY-2606368; T/C value ([2]; 40 mg/kg, IV, twice a week): −77%; tumor growth inhibition ([2]; LY2606368 15 mg/kg, Compound 3 10, 20, 40 mg/kg, IV, twice a week): significant tumor growth inhibition in a dose-dependent manner; efficacy compared with LY2606368 at MTD dose ([2]; MTD dose): more efficacious than LY2606368; IC50 (Chk2): 0.05 to 0.1 µM; Percentage Remaining % ([3]; 0 min): 100.00%; Percentage Remaining % ([3]; 5 min): 96.98%; Percentage Remaining % ([3]; 15 min): 94.32%; Percentage Remaining % ([3]; 30 min): 65.38%; Percentage Remaining % ([3]; 45 min): 77.05%; metabolic stability compared with LY2606368 ([3]; human liver S9): more metabolic stable than LY2606368; half-life at 1 μM ([3]; human liver S9, 1 μM): 2.76 h; IC50 (Chk1): ≤ 0.001 µM; Kp (in vivo; female, Balb/c nude): ~6; half-life (in vivo; female, Balb/c nude, half-life in blood): 6.1 h; half-life (in vivo; female, Balb/c nude, half-life in tumor tissues): 14 h; distribution into tumor tissues (in vivo): rapidly distributed into tumor tissues; inhibition of ChK1 phosphorylation (FIG. 2) [4]: potently inhibited ChK1 phosphorylation
